In article PMC6522510 (Nature Communications, 2019):
Where a name gives a salt, the structure may show the parent alone. Read-outs that look alike come from different tables or passages of the source.

Experiments:
Design in all cases: species or system AML cell lines (8); Primary HTS, single concentration about 10 uM, Cell Titer Glo viability; log10 luminescence, per cent inhibition relative to cycloheximide control
Conditions in all cases: 72 h, relative to cycloheximide control, log10 luminescence, inhibitor
MV4-11 = test system: MV4-11
U937 = test system: U937
M07e = test system: M07e
MOLM-13 = test system: MOLM-13
CMK = test system: CMK
ML-2 = test system: ML-2
CMS = test system: CMS
CHRF288-11 = test system: CHRF288-11

SMILES | MV4-11 %inh (MV4-11) | U937 %inh (U937) | M07e %inh (M07e) | MOLM-13 %inh (MOLM-13) | CMK %inh (CMK) | ML-2 %inh (ML-2) | CMS %inh (CMS) | CHRF288-11 %inh (CHRF288-11) | MV4-11 %inh (MV4-11; MV4-11 %inh, 10 µM) | U937 %inh (U937; U937 %inh, 10 µM) | M07e %inh (M07e; M07e %inh, 10 µM) | MOLM-13 %inh (MOLM-13; MOLM-13 %inh, 10 µM) | CMK %inh (CMK; CMK %inh, 10 µM) | ML-2 %inh (ML-2; ML-2 %inh, 10 µM) | CMS %inh (CMS; CMS %inh, 10 µM) | CHRF288-11 %inh (CHRF288-11; CHRF288-11 %inh, 10 µM)
CCc1cc(C(N)=S)ccn1 [SJ000285764-4, ETHIONAMIDE] | -3.503% | -1.304% | 0.2673% | -0.3958% | -7.383% | 0.2945% | -3.091% | 8.533% | – | – | – | – | – | – | – | –
CC(=O)OCC(=O)[C@@]12OC(C)(C)O[C@@H]1C[C@H]1[C@@H]3C[C@H](F)C4=CC(=O)C=C[C@]4(C)[C@@]3(F)[C@@H](O)C[C@@]12C [SJ000285768-4, FLUOCINONIDE] | 1.473% | 4.65% | 4.323% | 6.203% | 3.895% | 0.7594% | 8.496% | 0.7625% | – | – | – | – | – | – | – | –
Cc1ccc(C)c(OCCCC(C)(C)C(=O)O)c1 [SJ000285775-4, GEMFIBROZIL] | – | – | – | – | – | – | – | – | 1.327% | -0.006863% | 3.732% | 2.26% | 2.032% | -0.7985% | 6.72% | -1.527%
Cc1ccc(C)c(OCCCC(C)(C)C(=O)O)c1 [SJ000285775-5, GEMFIBROZIL] | – | – | – | – | – | – | – | – | 21.39% | 12.09% | 4.331% | 7.787% | 52.47% | 5.256% | 12.02% | 15.66%
N=C(N)NCCN1CCCCCCC1 [SJ000285779-4, GUANETHIDINE SULFATE] | -2.801% | -2.581% | 0.2704% | -0.2658% | -2.691% | 1.503% | -3.451% | -6.834% | – | – | – | – | – | – | – | –
NS(=O)(=O)c1cc2c(cc1Cl)NCNS2(=O)=O [SJ000285785-7, HYDROCHLOROTHIAZIDE] | 1.232% | -0.1321% | -2.196% | 5.809% | 2.395% | 4.295% | 1.584% | 2.834% | – | – | – | – | – | – | – | –
CCCCCC(=O)O[C@]1(C(C)=O)CC[C@H]2[C@@H]3CCC4=CC(=O)CC[C@]4(C)[C@H]3CC[C@@]21C [SJ000285789-3, HYDROXYPROGESTERONE CAPROATE] | -1.131% | 3.003% | 0.1043% | 1.659% | 2.985% | -1.962% | -0.655% | -3.09% | – | – | – | – | – | – | – | –
CC(=O)Nc1nnc(S(N)(=O)=O)s1 [SJ000285803-7, ACETAZOLAMIDE] | 1.807% | -0.874% | -1.461% | 3.554% | 2.601% | -2.151% | 0.5025% | 0.8463% | – | – | – | – | – | – | – | –
Oc1ncnc2[nH]ncc12 [SJ000285807-6, ALLOPURINOL] | -0.8311% | 0.524% | -3.01% | -2.79% | -2.837% | -1.752% | -3.837% | 0.3228% | – | – | – | – | – | – | – | –
COc1ccc(C(Cl)=C(c2ccc(OC)cc2)c2ccc(OC)cc2)cc1 [SJ000285822-4, CHLOROTRIANISENE] | 5.688% | 7.913% | 9.609% | 5.231% | 7.136% | 4.119% | 1.562% | -2.199% | – | – | – | – | – | – | – | –
NC(N)=Nc1nc(CSCC/C(N)=N/S(N)(=O)=O)cs1 [SJ000285829-7, FAMOTIDINE] | -0.5719% | 7.705% | 1.389% | 1.07% | 0.6614% | 2.616% | 0.7839% | -4.142% | – | – | – | – | – | – | – | –
CCc1cccc2c3c([nH]c12)C(CC)(CC(=O)O)OCC3 (centres unmarked) [SJ000285831-7, ETODOLAC] | 1.346% | -0.08316% | 4.534% | 1.754% | 4.628% | 1.517% | 0.03623% | -0.814% | – | – | – | – | – | – | – | –
Nc1ccc(S(=O)(=O)Nc2ccccn2)cc1 [SJ000285852-4, SULFAPYRIDINE] | – | – | – | – | – | – | – | – | 0.2362% | 2.235% | -0.2217% | -2.284% | -3.962% | 1.702% | 2.156% | -1.153%
Nc1ccc(S(=O)(=O)Nc2ccccn2)cc1 [SJ000285852-5, SULFAPYRIDINE] | – | – | – | – | – | – | – | – | 1.788% | 0.04414% | 0.899% | 1.863% | -1.27% | -1.492% | 2.339% | 1.364%
CC(C(=O)O)c1ccc(C(=O)c2cccs2)cc1 (centres unmarked) [SJ000285866-4, SUPROFEN] | -0.1438% | 0.9376% | -0.1194% | 1.517% | 0.7662% | 4.32% | -1.053% | 0.5358% | – | – | – | – | – | – | – | –
Cc1ccc(S(=O)(=O)NC(=O)NN2CCCCCC2)cc1 [SJ000285887-7, TOLAZAMIDE] | 0.7665% | -0.04508% | 4.47% | 0.3359% | -1.031% | -1.198% | 0.4752% | 90.56% | – | – | – | – | – | – | – | –
NCCCC[C@H](N[C@@H](CCc1ccccc1)C(=O)O)C(=O)N1CCC[C@H]1C(=O)O [SJ000285890-4, LISINOPRIL] | – | – | – | – | – | – | – | – | 2.293% | 5.753% | -2.951% | -2.286% | 2.277% | -0.08728% | -0.4714% | -6.515%
NCCCC[C@H](N[C@@H](CCc1ccccc1)C(=O)O)C(=O)N1CCC[C@H]1C(=O)O [SJ000285890-5, LISINOPRIL] | – | – | – | – | – | – | – | – | 1.898% | 0.1781% | -0.6293% | -1.932% | -4.631% | 2.151% | -0.7769% | 0.1312%
CCCCNc1cc(C(=O)O)cc(S(N)(=O)=O)c1Oc1ccccc1 [SJ000285893-7, BUMETANIDE] | – | – | – | – | – | – | – | – | -2.25% | 1.768% | -2.011% | -2.419% | -6.073% | -1.959% | 2.865% | -2.258%
CCCCNc1cc(C(=O)O)cc(S(N)(=O)=O)c1Oc1ccccc1 [SJ000285893-8, BUMETANIDE] | – | – | – | – | – | – | – | – | 2.839% | 0.292% | 45.31% | 2.916% | -0.903% | -0.3091% | 2.258% | -1.756%
NC[C@H]1CC[C@H](C(=O)O)CC1 [SJ000285898-4, TRANEXAMIC ACID] | -0.1986% | -1.275% | 0.2149% | -3.616% | -3.012% | 1.648% | -4.095% | -2.741% | – | – | – | – | – | – | – | –
CC(=O)OC/C=C(C)/C=C/C=C(C)/C=C/C1=C(C)CCCC1(C)C [SJ000285933-3, RETINYL ACETATE] | 3.526% | 8.926% | 2.591% | 0.103% | 13.65% | 2.843% | 2.535% | 13.53% | – | – | – | – | – | – | – | –
